Measured values: patent publication US20130129675A1, “INTERFERON THERAPIES IN COMBINATION WITH BLOCKADE OF STAT3 ACTIVATION” (BOARD OF REGENTS, THE UNIVERSITY OF TEXAS SYSTEM, priority 2009, published 2013)

Experiments:
Assay type in all cases: cell-based, human
[1] = test system: STAT3 in HH, HuT78 and MJ CTCL lines; assay: STAT3 tyrosine 705 phosphorylation in CTCL lines
Method: (§1) To determine whether IFN alpha and beta were able to selectively phosphorylate STAT3 in other cell types. Studies were conducted in a range of other biologically relevant cell types. In these experiments, cells were grown in media supplemented with 10% FBS, and then serum starved for 18 hours and exposed to various stimuli for 30 minutes.

[2] = test system: HuT78 and HH CTCL cell lines; assay: In vitro growth of CTCL cell lines
[3] = test system: HH cells; assay: Caspase-3 and PARP cleavage in HH cells
Method: as §1, with “minutes. […] (FIG. 10), and induced caspase-3 and PARP cleavage in these cells (Table E5)” for “minutes.”
(§2) HH, HuT78 and MJ cells were treated with vehicle alone or WP1220 for 24 hours. Total caspase-3 and cleaved caspase-3 levels were measured in 15 ug lysates by a meso-Scale 2400 imager. Results represent means fold stimulations compared to the controls based on duplicate samples (+++++=15-25 fold; ++++=10-15 fold; +++=5-10 fold; =/−=less than 2 fold.

[4] = test system: HuT78 Cells; assay: Caspase-3 and PARP cleavage in HuT78 cells
Method: as §1, with “minutes. […] (FIG. 10), and induced caspase-3 and PARP cleavage in these cells (Table E5)” for “minutes.”
as §2

[5] = test system: MJ cells; assay: Caspase-3 induction in MJ cells; conditions: 10.0 uM, 24 hours
Method: as §2

[6] = test system: STAT3 in HaCaT keratinocytes; assay: pSTAT3 level in HaCaT keratinocytes (MSD chemiluminescent detection); conditions: pre-incubated
Method: Prior to experiments, the DMEM medium was changed to KGM-SFM containing rEGF and bovine pituitary extract for 12 hours, and the cells then exposed to various stimuli for 30 minutes. Cell lysates were extracted in IP lysis buffer were diluted in MSD extraction buffer and 25 uL of the cell lysate containing 10 ug protein was used in the analysis via chemiluminescent detection (MSD Technology). To test for inhibition by WP1220 (WP), cells were pre-incubated with WP1220 prior to the addition of IFN α.

C[C@H](NC(=O)/C(C#N)=C/C=C/c1cccc(Br)n1)c1ccccc1 [WP1220, (2E,4E)-5-(6-bromopyridin-2-yl)-2-cyano-N—((S)-1-phenylethyl)penta-2,4-dienamide] was tested. Which “relative level of activated pSTAT3” value ([1]; HH cells) did it give?
Its value is “time dependent decrease”.

And the “constitutive and interferon stimulated phosphorylation of STAT3” value ([1]; HH, HuT78, MJ cells (FIG. 8A, B))?
The value was “specifically blocked”.

What about the in vitro growth [2] of the same compound?
Its in vitro growth is “potently inhibiting the in vitro growth”.

And the “Cleaved Caspase” value ([3]; 5.0 uM)?
The value was “++++ (++++=60,000-40,000)”.

And the “Cleaved PARP” value ([3]; 5.0 uM)?
Its value is “+++++ (+++++=10,000-7,000)”.

What about the “Cleaved Caspase” value ([3]; 10.0 uM) of the same compound?
The value was “++++ (++++=60,000-40,000)”.

What about the “Cleaved PARP” value ([3]; 10.0 uM) of the same compound?
Its value is “+++ (+++=5,000-2000)”.

What about the “induction of caspase-3 activity (fold stimulation compared to controls)” value ([3]; 10.0 uM, 24 hours) of the same compound?
Its value is “+++++ (+++++=15-25 fold)”.

What about the “Cleaved Caspase” value ([4]; 5.0 uM) of the same compound?
Its value is “++++ (++++=60,000-40,000)”.

And the “Cleaved PARP” value ([4]; 5.0 uM)?
Its value is “++++ (++++=7,000-5,000)”.

And the “Cleaved PARP” value ([4]; 10.0 uM)?
Its value is “+++ (+++=5,000-2000)”.

What about the “induction of caspase-3 activity (fold stimulation compared to controls)” value ([4]; 10.0 uM, 24 hours) of the same compound?
Its value is “++++ (++++=10-15 fold)”.

And the “induction of caspase-3 activity (fold stimulation compared to controls)” value [5]?
Its value is “+++ (+++=5-10 fold)”.

What about the “pSTAT3 signal remaining after WP1220 pre-incubation” value (“pSTAT3 signal remaining” for short) ([6]; IFN α + WP 5 uM) of the same compound?
Its value is “+++ (+++=2,000-4,000)”.

And the “pSTAT3 signal remaining” value ([6]; IFN α + WP 10 uM)?
Its value is “++ (++=2,000-1,500)”.

What about the “pSTAT3 signal remaining” value ([6]; IFN α + WP 20 uM) of the same compound?
The value was “+ (+=less than 1,500)”.
